# In US4686308A, “Novel physiologically active substance MH435” (Microbial Chemistry Research Foundation, priority 1985, dated 1987):
# Assays:
# [1] = biological target: T1, tyrosine specific protein kinase in the epidermal growth factor receptor (Homo sapiens, UniProt P00533); experiment: Inhibitory activity against tyrosine specific protein kinase (epidermal growth factor receptor kinase), A-431 membrane fraction; assay type: biochemical; settings: EGF, 0° C., 30 min, read-out: 50% inhibitory concentration (tyrosine specific protein kinase) (converted)
# T1 construct: membrane fraction of human epithelial carcinoma cells A-431; endogenous in cells; host or cells: A-431 human epithelial carcinoma cells, membrane fraction
# T1 sequence (P00533 25-1210): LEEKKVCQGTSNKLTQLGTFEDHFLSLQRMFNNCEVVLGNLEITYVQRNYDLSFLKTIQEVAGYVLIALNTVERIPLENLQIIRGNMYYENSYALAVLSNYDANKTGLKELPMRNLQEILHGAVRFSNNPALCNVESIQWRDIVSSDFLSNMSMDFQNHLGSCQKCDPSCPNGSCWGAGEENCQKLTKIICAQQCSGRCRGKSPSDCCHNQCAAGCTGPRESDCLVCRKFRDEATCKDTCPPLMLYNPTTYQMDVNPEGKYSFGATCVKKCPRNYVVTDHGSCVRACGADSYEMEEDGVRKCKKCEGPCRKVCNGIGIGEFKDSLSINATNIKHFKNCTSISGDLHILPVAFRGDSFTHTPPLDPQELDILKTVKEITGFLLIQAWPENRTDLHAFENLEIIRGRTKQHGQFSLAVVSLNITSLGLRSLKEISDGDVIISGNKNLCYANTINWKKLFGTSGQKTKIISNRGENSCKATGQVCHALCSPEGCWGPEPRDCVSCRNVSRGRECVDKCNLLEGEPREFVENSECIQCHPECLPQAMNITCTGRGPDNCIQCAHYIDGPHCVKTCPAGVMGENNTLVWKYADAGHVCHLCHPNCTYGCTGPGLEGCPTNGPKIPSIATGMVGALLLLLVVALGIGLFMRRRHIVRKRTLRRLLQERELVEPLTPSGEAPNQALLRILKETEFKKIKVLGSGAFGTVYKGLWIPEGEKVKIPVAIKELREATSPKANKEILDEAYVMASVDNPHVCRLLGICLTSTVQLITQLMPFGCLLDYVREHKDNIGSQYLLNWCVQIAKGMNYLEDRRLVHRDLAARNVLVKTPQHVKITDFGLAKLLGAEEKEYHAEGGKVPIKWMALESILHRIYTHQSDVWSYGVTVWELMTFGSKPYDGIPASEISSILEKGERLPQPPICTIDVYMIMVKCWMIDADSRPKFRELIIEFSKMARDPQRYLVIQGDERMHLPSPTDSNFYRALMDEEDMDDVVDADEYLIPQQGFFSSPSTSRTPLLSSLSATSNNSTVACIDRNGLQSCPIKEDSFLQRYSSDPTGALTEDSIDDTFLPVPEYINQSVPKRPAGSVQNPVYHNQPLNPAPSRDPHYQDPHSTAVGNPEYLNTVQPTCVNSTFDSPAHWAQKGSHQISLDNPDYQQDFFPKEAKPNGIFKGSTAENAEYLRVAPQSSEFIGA
# Method: In the above processes of incubation and purification, MH435 was traced by detecting the inhibition activity thereof by measuring the tyrosine specific protein kinase in test samples in accordance with the following method.
# [Measurement of tyrosine specific protein kinase activity]
# The measurement of tyrosin specific protein kinase activity was carried out by modifying the method of measuring enzyme activity described by G. Carpenter et al. in The Journal of Biological Chemistry, 254, 4874-4891 (1979) using the membrane fraction of human epithelial carcinoma cells A-431 with respect to the tyrosine specific protein kinase in the epidermal growth factor receptor. […] Then, ^32 P adsorbed on the filter paper was measured by counting the radioactivity (a). At the same time, count (b) was measured for the reaction product which was obtained by the same reaction and treated in the same manner as above except that the test sample was excluded, while counts (a') and (b') were measured for the reaction products in which the membrane fractions were further excluded, respectively. The inhibitory ratio with respect to the epidermal growth factor receptor kinase was then calculated from the equation
# L1210 leukemia cells = experiment: Effects on cultured carcinoma cells: L1210; assay type: cell-based; settings: Mus musculus, 72 h, 3 days, 37° C., cell count
# Method: (§1) IC50 was measured by inoculating the respective cells in dished (3-5×10^4 cells/dish), incubating the cells for 1 day (at 37° C.; CO2 concentration, 5%), then adding the substance MH435-A, further incubating the resultant mixture for 3 days under the same conditions and finally counting the number of the cells.
# IMC carcinoma cells = experiment: Effects on cultured carcinoma cells: IMC carcinoma; assay type: cell-based; settings: 72 h, 3 days, 37° C., cell count
# Method: as §1
# Ki-NRK cells = experiment: Effects on cultured carcinoma cells: Ki-NRK; assay type: cell-based; settings: 72 h, 3 days, 37° C., cell count
# Method: as §1
# [2] = tested on: ts Src-NRK (at 33° C.) carcinoma form; experiment: Effects on cultured carcinoma cells: ts Src-NRK (at 33° C.) carcinoma form; assay type: cell-based; settings: 72 h, 3 days, cell count
# [3] = tested on: ts Src-NRK (at 39° C.) normal form; experiment: Effects on cultured carcinoma cells: ts Src-NRK (at 39° C.) normal form; assay type: cell-based; settings: 72 h, 3 days, cell count
# A-431 cells = experiment: Effects on cultured carcinoma cells: A-431; assay type: cell-based; settings: Homo sapiens, 72 h, 3 days, 37° C., cell count
# Method: as §1
# Acute toxicity (LD50) = settings: mouse, in vivo, ip
# B. Subtilis PCI 219 = experiment: Antimicrobial activity, agar dilution method; assay type: cell-based; settings: Bacillus subtilis, Muller-Hinton agar dilution
# Description: (§2) Minimum inhibitory concentrations (MIC) of the substance against various bacteria determined by the agar dilution method using Muller-Hinton culture medium are shown in the following Table 4.
# B. cereus ATCC 10702 = experiment: Antimicrobial activity, agar dilution method; assay type: cell-based; settings: Bacillus cereus, ATCC10702, Muller-Hinton agar dilution
# Description: as §2
# Coryn. bovis 1810 = experiment: Antimicrobial activity, agar dilution method; assay type: cell-based; settings: Corynebacterium bovis, Muller-Hinton agar dilution
# Description: as §2
# E. coli NIHJ = experiment: Antimicrobial activity, agar dilution method; assay type: cell-based; settings: Escherichia coli, Muller-Hinton agar dilution
# Description: as §2
# K. pneumoniae PCI 602 = experiment: Antimicrobial activity, agar dilution method; assay type: cell-based; settings: Klebsiella pneumoniae, PCI602, Muller-Hinton agar dilution
# Description: as §2
# M. lysodelkticus IFO 333 = experiment: Antimicrobial activity, agar dilution method; assay type: cell-based; settings: Muller-Hinton agar dilution
# Description: as §2
# Prot. vulgaris OX19 = experiment: Antimicrobial activity, agar dilution method; assay type: cell-based; settings: Proteus vulgaris, Muller-Hinton agar dilution
# Description: as §2
# Pseu. aeruginosa A3 = experiment: Antimicrobial activity, agar dilution method; assay type: cell-based; settings: Pseudomonas aeruginosa, Muller-Hinton agar dilution
# Description: as §2
# S. aureus 209 P = experiment: Antimicrobial activity, agar dilution method; assay type: cell-based; settings: Staphylococcus aureus, Muller-Hinton agar dilution
# Description: as §2
# S. aureus MS8710 = experiment: Antimicrobial activity, agar dilution method; assay type: cell-based; settings: Staphylococcus aureus, Muller-Hinton agar dilution
# Description: as §2
# S. aureus MS9610 = experiment: Antimicrobial activity, agar dilution method; assay type: cell-based; settings: Staphylococcus aureus, Muller-Hinton agar dilution
# Description: as §2
# S. aureus Smith = experiment: Antimicrobial activity, agar dilution method; assay type: cell-based; settings: Staphylococcus aureus, Muller-Hinton agar dilution
# Description: as §2
# Sal. typhi T-63 = experiment: Antimicrobial activity, agar dilution method; assay type: cell-based; settings: Salmonella enterica
# Description: as §2
# Serr. marcessens = experiment: Antimicrobial activity, agar dilution method; assay type: cell-based; settings: Muller-Hinton agar dilution
# Description: as §2
smiles,measurement,setting,value
O=CNC=Cc1cc(O)ccc1O [MH435-A],IC50,[1],3.07 µM
same,IC50,L1210 leukemia cells,2.41 µg/mL
same,IC50,IMC carcinoma cells,3.01 µg/mL
same,IC50,Ki-NRK cells,1.7 µg/mL
same,IC50,[2],2 µg/mL
same,IC50,[3],3.6 µg/mL
same,IC50,A-431 cells,3.6 µg/mL
same,LD50,Acute toxicity (LD50),≥ 200 mg/kg
same,MIC,B. Subtilis PCI 219,100 µg/mL
same,MIC,B. cereus ATCC 10702,100 µg/mL
same,MIC,Coryn. bovis 1810,100 µg/mL
same,MIC,E. coli NIHJ,100 µg/mL
same,MIC,K. pneumoniae PCI 602,100 µg/mL
same,MIC,M. lysodelkticus IFO 333,50 µg/mL
same,MIC,Prot. vulgaris OX19,100 µg/mL
same,MIC,Pseu. aeruginosa A3,25 µg/mL
same,MIC,S. aureus 209 P,50 µg/mL
same,MIC,S. aureus MS8710,50 µg/mL
same,MIC,S. aureus MS9610,50 µg/mL
same,MIC,S. aureus Smith,25 µg/mL
same,MIC,Sal. typhi T-63,100 µg/mL
same,MIC,Serr. marcessens,100 µg/mL
O=CNCCc1cc(O)ccc1O [MH435-B],IC50,[1],33.1 µM
same,MIC,B. Subtilis PCI 219,100 µg/mL
same,MIC,B. cereus ATCC 10702,100 µg/mL
same,MIC,Coryn. bovis 1810,100 µg/mL
same,MIC,E. coli NIHJ,100 µg/mL
same,MIC,K. pneumoniae PCI 602,100 µg/mL
same,MIC,M. lysodelkticus IFO 333,50 µg/mL
same,MIC,Prot. vulgaris OX19,50 µg/mL
same,MIC,Pseu. aeruginosa A3,50 µg/mL
same,MIC,S. aureus 209 P,50 µg/mL
same,MIC,S. aureus MS8710,50 µg/mL
same,MIC,S. aureus MS9610,50 µg/mL
same,MIC,S. aureus Smith,50 µg/mL
same,MIC,Sal. typhi T-63,100 µg/mL
same,MIC,Serr. marcessens,100 µg/mL
